# From publication PMC8286840, “Identifying SARS-CoV-2 antiviral compounds by screening for small molecule inhibitors of Nsp3 papain-like protease” (Biochemical Journal, 2021)
# Structures can show the parent of a compound that is named as a salt. Where two headings read alike, the source gives them in different places. Where a SMILES comes first, the peptide text is derived from it. [ ]: non-standard residue; d: D form. Dolaproine = CO[C@@H]([C@@H]1CCCN1)[C@@H](C)C(=O)O; Dil = CC[C@H](C)[C@H](NC)[C@@H](CC(=O)O)OC; NMeV = CN[C@H](C(=O)O)C(C)C
# Columns and labels:
# [1] = biological target: T1, SARS-CoV-2 PLpro (nsp3 1564–1878) (Severe acute respiratory syndrome coronavirus 2, UniProt P0DTD1); assay: biochemical; design: FRET-quenched peptide (Pro3) cleavage by PLpro, 10 min pre-incubation, slope over 20 min, normalised to no-compound control; conditions: high concentration screen, read-out: % of control remaining
# [2] = biological target: T1, SARS-CoV-2 PLpro (nsp3 1564–1878); assay: biochemical; design: FRET-quenched peptide (Pro3) cleavage by PLpro, 10 min pre-incubation, slope over 20 min, normalised to no-compound control; conditions: low concentration screen, read-out: % of control remaining
smiles,measurement,setting,value
COc1ccc2c(c1OC)C(=O)O[C@@H]2[C@H]1c2c(cc3c(c2OC)OCO3)CCN1C [Noscapine],remaining activity at 3.75 µM,[1]; Well no.=6613,106%
same,remaining activity at 1.25 µM,[2]; Well no.=6613,106%
COc1ccccc1CN[C@H]1C2CCN(CC2)[C@H]1C(c1ccccc1)c1ccccc1 [CP-96345],remaining activity at 3.75 µM,[1]; Well no.=5867,96.7%
same,remaining activity at 1.25 µM,[2]; Well no.=5867,97.7%
"CCN(C)C(=O)Oc1cccc([C@H](C)N(C)C)c1 [(2R,3R)-2,3-dihydroxybutanedioic acid compound with 3-[(1S)-1-(dimethylamino)ethyl]phenyl ethyl(methyl)carbamate (1:1)]",remaining activity at 3.75 µM,[1]; Well no.=5811,98%
same,remaining activity at 1.25 µM,[2]; Well no.=5811,96.9%
COc1c2c(nc3ccccc13)OC(C(C)(O)CO)C2 (stereo not drawn) [Dubinidine],remaining activity at 3.75 µM,[1]; Well no.=486,105%
same,remaining activity at 3.75 µM,[1]; Well no.=3115,104%
same,remaining activity at 1.25 µM,[2]; Well no.=486,106%
same,remaining activity at 1.25 µM,[2]; Well no.=3115,102%
Nc1ccccc1C(=O)C[C@H](N)C(=O)O [L-Kynurenine],remaining activity at 3.75 µM,[1]; Well no.=7221,92%
same,remaining activity at 1.25 µM,[2]; Well no.=7221,95.5%
CN(C)[C@@H]1CCc2[nH]c3ccc(NC(=O)c4ccc(F)cc4)cc3c2C1 [LY 344864],remaining activity at 3.75 µM,[1]; Well no.=7289,91.2%
same,remaining activity at 1.25 µM,[2]; Well no.=7289,93.4%
COc1ccccc1Oc1c(NS(=O)(=O)c2ccc(C(C)(C)C)cc2)nc(-c2ncccn2)nc1OCCO [Bosentan],remaining activity at 3.75 µM,[1]; Well no.=2246,95%
same,remaining activity at 3.75 µM,[1]; Well no.=7575,96.3%
same,remaining activity at 1.25 µM,[2]; Well no.=2246,93.3%
same,remaining activity at 1.25 µM,[2]; Well no.=7575,98.7%
Cc1cc(-n2c(=O)[nH]c(=O)n(C)c2=O)ccc1Oc1ccc(SC(F)(F)F)cc1 [Toltrazuril],remaining activity at 3.75 µM,[1]; Well no.=4692,102%
same,remaining activity at 1.25 µM,[2]; Well no.=4692,110%
CCN(CC)CCNC(=O)c1cc(Cl)c(N)cc1OC [Metoclopramide hydrochloride],remaining activity at 3.75 µM,[1]; Well no.=966,103%
same,remaining activity at 1.25 µM,[2]; Well no.=966,100%
O=C1NC(=O)c2c1c1c3ccccc3n3c1c1c2c2ccccc2n1[C@H]1CC[C@@H]3O1 [SB 218078],remaining activity at 3.75 µM,[1]; Well no.=2648,94.3%
same,remaining activity at 1.25 µM,[2]; Well no.=2648,92.1%
COc1c(N2CCNC(C)C2)c(F)cc2c(=O)c(C(=O)O)cn(C3CC3)c12 (stereo not drawn) [Gatifloxacin],remaining activity at 3.75 µM,[1]; Well no.=2170,104%
same,remaining activity at 1.25 µM,[2]; Well no.=2170,103%
COc1ccc(C(=O)c2c(C)n(CCN3CCOCC3)c3ccccc23)cc1 [Pravadoline],remaining activity at 3.75 µM,[1]; Well no.=1805,97.7%
same,remaining activity at 1.25 µM,[2]; Well no.=1805,97.2%
CC(C)(C)C[C@@H]1N[C@@H](C(=O)N[C@H]2CC[C@H](O)CC2)[C@H](c2cccc(Cl)c2F)[C@]12C(=O)Nc1cc(Cl)ccc12 [SAR405838],remaining activity at 3.75 µM,[1]; Well no.=6550,110%
same,remaining activity at 1.25 µM,[2]; Well no.=6550,109%
CC(=O)OCC(=O)[C@@]1(O)CC[C@H]2[C@@H]3CCC4=CC(=O)CC[C@]4(C)[C@@]3(F)[C@@H](O)C[C@@]21C [Fludrocortisone acetate],remaining activity at 3.75 µM,[1]; Well no.=5827,104%
same,remaining activity at 1.25 µM,[2]; Well no.=5827,103%
CCCCCCCCCCCCCCCCCC(=O)O [Stearic acid],remaining activity at 3.75 µM,[1]; Well no.=6963,102%
same,remaining activity at 1.25 µM,[2]; Well no.=6963,98.8%
COc1cc2c(cc1OC)CC(=O)N(CCCN(C)C[C@H]1Cc3cc(OC)c(OC)cc31)CC2 [Ivabradine hydrochloride],remaining activity at 3.75 µM,[1]; Well no.=5419,106%
same,remaining activity at 1.25 µM,[2]; Well no.=5419,104%
"c1ccc(CN2CCC3(CCCc4ccccc43)CC2)cc1 [L-687,384 hydrochloride]",remaining activity at 3.75 µM,[1]; Well no.=1123,97.2%
same,remaining activity at 1.25 µM,[2]; Well no.=1123,96.4%
O=C(O)CCCCC1CCSS1 (racemic),remaining activity at 3.75 µM,[1]; Well no.=1195,101%
same,remaining activity at 1.25 µM,[2]; Well no.=1195,102%
NC(=O)[C@H](Cc1ccccc1)NC(=O)[C@H](Cc1c[nH]c2ccccc12)NC(=O)[C@@H]1CCCN1C(=O)[C@@H](N)Cc1ccc(O)cc1 [Endomorphin 1],remaining activity at 3.75 µM,[1]; Well no.=7901,97.8%
same,remaining activity at 1.25 µM,[2]; Well no.=7901,102%
CC1=CC(=O)CC(C)(C)C1(O)/C=C/C(C)=C\C(=O)O (racemic),remaining activity at 3.75 µM,[1]; Well no.=3152,102%
same,remaining activity at 1.25 µM,[2]; Well no.=3152,101%
Clc1cccc(COc2cncc(N3CCNCC3)n2)c1 [CP-809101 (hydrochloride)],remaining activity at 3.75 µM,[1]; Well no.=7851,83.3%
same,remaining activity at 1.25 µM,[2]; Well no.=7851,95.1%
CN(C)CCCCC(=O)Nc1ccc(NC(=S)NC(=O)c2ccc(C(C)(C)C)cc2)cc1 [Tenovin-6],remaining activity at 3.75 µM,[1]; Well no.=6724,92%
same,remaining activity at 1.25 µM,[2]; Well no.=6724,93.8%
O=C(N[C@H](CO)[C@H](O)c1ccc([N+](=O)[O-])cc1)C(Cl)Cl [Chloramphenicol],remaining activity at 3.75 µM,[1]; Well no.=2223,96.6%
same,remaining activity at 1.25 µM,[2]; Well no.=2223,96.9%
CC(=O)NC[C@H]1CN(c2ccc(N3CCOCC3)c(F)c2)C(=O)O1 [Linezolid],remaining activity at 3.75 µM,[1]; Well no.=1782,98.8%
same,remaining activity at 1.25 µM,[2]; Well no.=1782,102%
S=C(S)N1CCCC1 [Ammonium pyrrolidinedithiocarbamate],remaining activity at 3.75 µM,[1]; Well no.=1495,97.9%
same,remaining activity at 1.25 µM,[2]; Well no.=1495,102%
CC[C@H](C)[C@@H]([C@@H](CC(=O)N1CCC[C@H]1[C@H](OC)[C@@H](C)C(=O)N[C@@H](Cc1ccccc1)C(=O)OC)OC)N(C)C(=O)[C@@H](NC(=O)[C@@H](NC)C(C)C)C(C)C [MMAF-OMe] (H-[NMeV]V[Dil][Dolaproine]F-OMe),remaining activity at 3.75 µM,[1]; Well no.=7600,97.1%
same,remaining activity at 1.25 µM,[2]; Well no.=7600,101%
Cn1c(=O)cc(N2CCC[C@@H](N)C2)n(Cc2ccccc2C#N)c1=O [Alogliptin (SYR-322)],remaining activity at 3.75 µM,[1]; Well no.=5179,97.5%
same,remaining activity at 1.25 µM,[2]; Well no.=5179,104%
NCCc1cc(O)c(O)cc1O [Oxidopamine (hydrobromide)],remaining activity at 3.75 µM,[1]; Well no.=6940,92.3%
same,remaining activity at 1.25 µM,[2]; Well no.=6940,92%
CN1CCC2=C(C1)c1ccccc1Cc1ccccc12 [Setiptiline (maleate)],remaining activity at 3.75 µM,[1]; Well no.=6907,101%
same,remaining activity at 1.25 µM,[2]; Well no.=6907,101%
COc1ccc2[nH]c([S+]([O-])Cc3ncc(C)c(OC)c3C)nc2n1 (stereo not drawn) [Tenatoprazole],remaining activity at 3.75 µM,[1]; Well no.=1950,95.8%
same,remaining activity at 1.25 µM,[2]; Well no.=1950,98.5%
Clc1cccc(Cl)c1NC1=NCCN1 [Clonidine (hydrochloride)],remaining activity at 3.75 µM,[1]; Well no.=6755,98.3%
same,remaining activity at 1.25 µM,[2]; Well no.=6755,99.8%
CN[C@@H](C)C(=O)N[C@H](C(=O)N1CCC[C@H]1C(=O)N[C@H]1c2ccccc2C[C@H]1OCC#CC#CCO[C@@H]1Cc2ccccc2[C@@H]1NC(=O)[C@@H]1CCCN1C(=O)[C@@H](NC(=O)[C@H](C)NC)C1CCCCC1)C1CCCCC1 [AZD5582],remaining activity at 3.75 µM,[1]; Well no.=6358,101%
same,remaining activity at 3.75 µM,[1]; Well no.=8416,93.5%
same,remaining activity at 1.25 µM,[2]; Well no.=6358,102%
same,remaining activity at 1.25 µM,[2]; Well no.=8416,98.4%
CC(C)[C@@H](CN1CC[C@@](C)(c2cccc(O)c2)[C@@H](C)C1)NC(=O)[C@H]1Cc2ccc(O)cc2CN1 [JDTic (dihydrochloride)],remaining activity at 3.75 µM,[1]; Well no.=7139,97%
same,remaining activity at 1.25 µM,[2]; Well no.=7139,99.3%
